Data from PubChem BioAssay (NCI).
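These data come from cells grown in 96-well plates and exposed to compound for 48 hours at five concentrations. GI50 is the concentration that inhibits growth by half. TGI: concentration producing complete growth inhibition.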

Key:
Assay in all cases: NCI anticancer screen, dose series, 48 h
CCRF-CEM leukemia = test system: CCRF-CEM leukemia
NCI-H460 lung = test system: NCI-H460 lung
SF-268 CNS = test system: SF-268 CNS
SR leukemia = test system: SR leukemia
MOLT-4 leukemia = test system: MOLT-4 leukemia
OVCAR-3 ovarian = test system: OVCAR-3 ovarian
SNB-75 CNS = test system: SNB-75 CNS
DU-145 prostate = test system: DU-145 prostate
HCC-2998 colon = test system: HCC-2998 colon
MDA-MB-231 breast = test system: MDA-MB-231 breast
NCI/ADR-RES ovarian = test system: NCI/ADR-RES ovarian
LOX IMVI melanoma = test system: LOX IMVI melanoma
SF-539 CNS = test system: SF-539 CNS
U251 CNS = test system: U251 CNS
UO-31 renal = test system: UO-31 renal
SK-OV-3 ovarian = test system: SK-OV-3 ovarian
MDA-MB-468 breast = test system: MDA-MB-468 breast
CAKI-1 renal = test system: CAKI-1 renal
HCT-15 colon = test system: HCT-15 colon
HS 578T breast = test system: HS 578T breast
TK-10 renal = test system: TK-10 renal
UACC-62 melanoma = test system: UACC-62 melanoma
BT-549 breast = test system: BT-549 breast
RXF 393 renal = test system: RXF 393 renal
A549 NSCLC = test system: A549 NSCLC
NCI-H522 lung = test system: NCI-H522 lung
K-562 leukemia = test system: K-562 leukemia
MALME-3M melanoma = test system: MALME-3M melanoma
SF-295 CNS = test system: SF-295 CNS
EKVX NSCLC = test system: EKVX NSCLC
HT29 colon = test system: HT29 colon
HOP-62 NSCLC = test system: HOP-62 NSCLC
IGROV1 ovarian = test system: IGROV1 ovarian
OVCAR-8 ovarian = test system: OVCAR-8 ovarian
M14 melanoma = test system: M14 melanoma
OVCAR-5 ovarian = test system: OVCAR-5 ovarian
T-47D breast = test system: T-47D breast
KM12 colon = test system: KM12 colon
SK-MEL-5 melanoma = test system: SK-MEL-5 melanoma
PC-3 prostate = test system: PC-3 prostate
A498 renal = test system: A498 renal
MDA-MB-435 = test system: MDA-MB-435
HOP-92 NSCLC = test system: HOP-92 NSCLC
HCT-116 colon = test system: HCT-116 colon
UACC-257 melanoma = test system: UACC-257 melanoma
SN12C renal = test system: SN12C renal
NCI-H23 lung = test system: NCI-H23 lung
786-0 renal = test system: 786-0 renal
SNB-19 CNS = test system: SNB-19 CNS
NCI-H226 lung = test system: NCI-H226 lung
COLO 205 colon = test system: COLO 205 colon
ACHN renal = test system: ACHN renal
SK-MEL-2 melanoma = test system: SK-MEL-2 melanoma
SW-620 colon = test system: SW-620 colon
SK-MEL-28 melanoma = test system: SK-MEL-28 melanoma
HL-60(TB) leukemia = test system: HL-60(TB) leukemia
RPMI-8226 leukemia = test system: RPMI-8226 leukemia
MCF7 breast = test system: MCF7 breast
OVCAR-4 ovarian = test system: OVCAR-4 ovarian

O=C(NO)c1ccc(Cn2ccc3c(NCc4ccccc4)ncnc32)cc1
GI50 (CCRF-CEM leukemia): 3.72 µM
TGI (CCRF-CEM leukemia): 58.7 µM
GI50 (NCI-H460 lung): 3.12 µM
TGI (NCI-H460 lung): 19.1 µM
GI50 (SF-268 CNS): 8.8 µM
TGI (SF-268 CNS): 36.5 µM
GI50 (SR leukemia): 937 nM
TGI (SR leukemia): > 103 µM
GI50 (MOLT-4 leukemia): 2410 nM
TGI (MOLT-4 leukemia): 10.3 µM
GI50 (OVCAR-3 ovarian): 2170 nM
TGI (OVCAR-3 ovarian): 5.23 µM
GI50 (SNB-75 CNS): 1250 nM
TGI (SNB-75 CNS): 5.36 µM
GI50 (DU-145 prostate): 4.06 µM
TGI (DU-145 prostate): > 103 µM
GI50 (HCC-2998 colon): 4.5 µM
TGI (HCC-2998 colon): 17.1 µM
GI50 (MDA-MB-231 breast): 5.2 µM
TGI (MDA-MB-231 breast): 22 µM
GI50 (NCI/ADR-RES ovarian): 2600 nM
TGI (NCI/ADR-RES ovarian): 12.7 µM
GI50 (LOX IMVI melanoma): 4.2 µM
TGI (LOX IMVI melanoma): 16.1 µM
GI50 (SF-539 CNS): 2640 nM
TGI (SF-539 CNS): 9.8 µM
GI50 (U251 CNS): 3.21 µM
TGI (U251 CNS): 15.2 µM
GI50 (UO-31 renal): 3.93 µM
TGI (UO-31 renal): 16.6 µM
GI50 (SK-OV-3 ovarian): 3.27 µM
TGI (SK-OV-3 ovarian): 15.6 µM
GI50 (MDA-MB-468 breast): 2120 nM
TGI (MDA-MB-468 breast): 6.05 µM
GI50 (CAKI-1 renal): 3.21 µM
TGI (CAKI-1 renal): 15.2 µM
GI50 (HCT-15 colon): 3.09 µM
TGI (HCT-15 colon): 15.2 µM
GI50 (HS 578T breast): 2270 nM
TGI (HS 578T breast): 7.62 µM
GI50 (TK-10 renal): 3.2 µM
TGI (TK-10 renal): 17.8 µM
GI50 (UACC-62 melanoma): 2390 nM
TGI (UACC-62 melanoma): 12.2 µM
GI50 (BT-549 breast): 13.7 µM
TGI (BT-549 breast): 31.7 µM
GI50 (RXF 393 renal): 1940 nM
TGI (RXF 393 renal): 5.63 µM
GI50 (A549 NSCLC): 4.34 µM
TGI (A549 NSCLC): 20.6 µM
GI50 (NCI-H522 lung): 1930 nM
TGI (NCI-H522 lung): 7.69 µM
GI50 (K-562 leukemia): 2030 nM
TGI (K-562 leukemia): > 103 µM
GI50 (MALME-3M melanoma): 1990 nM
TGI (MALME-3M melanoma): 9.52 µM
GI50 (SF-295 CNS): 3.49 µM
TGI (SF-295 CNS): 12.7 µM
GI50 (EKVX NSCLC): 5.93 µM
TGI (EKVX NSCLC): 19.8 µM
GI50 (HT29 colon): 2480 nM
TGI (HT29 colon): 6.93 µM
GI50 (HOP-62 NSCLC): 4.13 µM
TGI (HOP-62 NSCLC): 20.9 µM
GI50 (IGROV1 ovarian): 4.14 µM
TGI (IGROV1 ovarian): 14.7 µM
GI50 (OVCAR-8 ovarian): 3.1 µM
TGI (OVCAR-8 ovarian): 14.4 µM
GI50 (M14 melanoma): 4.12 µM
TGI (M14 melanoma): 20.2 µM
GI50 (OVCAR-5 ovarian): 2570 nM
TGI (OVCAR-5 ovarian): 10.1 µM
GI50 (T-47D breast): 3.13 µM
TGI (T-47D breast): 21.8 µM
GI50 (KM12 colon): 3.19 µM
TGI (KM12 colon): 12.7 µM
GI50 (SK-MEL-5 melanoma): 1900 nM
TGI (SK-MEL-5 melanoma): 6.37 µM
GI50 (PC-3 prostate): 4.35 µM
TGI (PC-3 prostate): 97.9 µM
GI50 (A498 renal): 2280 nM
TGI (A498 renal): 10.2 µM
GI50 (MDA-MB-435): 562 nM
TGI (MDA-MB-435): 2260 nM
GI50 (HOP-92 NSCLC): 4.07 µM
TGI (HOP-92 NSCLC): 18.5 µM
GI50 (HCT-116 colon): 3.4 µM
TGI (HCT-116 colon): 24.9 µM
GI50 (UACC-257 melanoma): 2390 nM
TGI (UACC-257 melanoma): 15.1 µM
GI50 (SN12C renal): 4.41 µM
TGI (SN12C renal): 17.3 µM
GI50 (NCI-H23 lung): 4.8 µM
TGI (NCI-H23 lung): 17.2 µM
GI50 (786-0 renal): 8.63 µM
TGI (786-0 renal): 26.6 µM
GI50 (SNB-19 CNS): 5.81 µM
TGI (SNB-19 CNS): 20.6 µM
GI50 (NCI-H226 lung): 4.17 µM
TGI (NCI-H226 lung): 25.5 µM
GI50 (COLO 205 colon): 2430 nM
TGI (COLO 205 colon): 6.24 µM
GI50 (ACHN renal): 4.07 µM
TGI (ACHN renal): 15.2 µM
GI50 (SK-MEL-2 melanoma): 4.58 µM
TGI (SK-MEL-2 melanoma): 18.7 µM
GI50 (SW-620 colon): 2220 nM
TGI (SW-620 colon): 6.49 µM
GI50 (SK-MEL-28 melanoma): 3.77 µM
TGI (SK-MEL-28 melanoma): 17.5 µM
GI50 (HL-60(TB) leukemia): 2340 nM
TGI (HL-60(TB) leukemia): 6.38 µM
GI50 (RPMI-8226 leukemia): 2900 nM
TGI (RPMI-8226 leukemia): > 103 µM
GI50 (MCF7 breast): 3.25 µM
TGI (MCF7 breast): 22.8 µM
GI50 (OVCAR-4 ovarian): 12.2 µM
TGI (OVCAR-4 ovarian): 96.2 µM
